# Tests used:
# [1] = Cmax in cynomolgus monkey at 5 mg/kg, po; assay type: ADME, organism-based, Macaca fascicularis; design: dose 5 mg/kg, route oral; details: in vivo
# [2] = Volume of distribution at steady state in Beagle dog at 5 mg/kg, iv; assay type: ADME, organism-based, Canis lupus familiaris; design: dose 5 mg/kg, route intravenous; details: in vivo, read-out: Vdss
# [3] = Half life in cynomolgus monkey at 5 mg/kg, po; assay type: ADME, organism-based, Macaca fascicularis; design: dose 5 mg/kg, route oral; details: in vivo
# [4] = Permeability of the compound from basolateral to apical side of human Caco2 cells at 10 uM after 21 days; assay type: ADME, cell-based; details: Caco-2, read-out: permeability
# [5] = biological target: Mitogen-activated protein kinase 11 (Homo sapiens, UniProt Q15759); assay: Inhibition of P38beta at 10 uM
# Mitogen-activated protein kinase 11, sequence (Q15759 whole entry): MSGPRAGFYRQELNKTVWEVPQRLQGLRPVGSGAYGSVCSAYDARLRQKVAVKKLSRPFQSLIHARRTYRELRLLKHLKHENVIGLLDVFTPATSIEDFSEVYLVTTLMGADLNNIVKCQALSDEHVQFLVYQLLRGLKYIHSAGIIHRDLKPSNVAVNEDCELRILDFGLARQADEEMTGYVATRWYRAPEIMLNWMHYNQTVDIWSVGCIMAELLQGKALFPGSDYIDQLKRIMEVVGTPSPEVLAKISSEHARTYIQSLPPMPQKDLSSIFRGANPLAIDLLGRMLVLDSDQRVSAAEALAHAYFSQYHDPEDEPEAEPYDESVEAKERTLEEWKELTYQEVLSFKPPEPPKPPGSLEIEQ
# [6] = Plasma protein binding in cynomolgus monkey by untrafiltration method; assay type: ADME, cell-free, Macaca fascicularis; details: read-out: PPB (converted)
# [7] = Clearance in Beagle dog at 5 mg/kg, iv; assay type: ADME, organism-based, Canis lupus familiaris; design: dose 5 mg/kg, route intravenous; details: in vivo
# [8] = Oral bioavailability in Hanover-Wistar rat at 5 mg/kg; assay type: ADME, organism-based; details: in vivo
# Cytochrome P450 2C9 = Cytochrome P450 2C9 (Homo sapiens, UniProt P11712); assay: Inhibition of human CYP2C9; assay type: ADME
# [9] = biological target: T1, Ribosomal protein S6 kinase alpha-3 (Homo sapiens, UniProt P51812); assay: Inhibition of RSK2
# T1 sequence (P51812 whole entry): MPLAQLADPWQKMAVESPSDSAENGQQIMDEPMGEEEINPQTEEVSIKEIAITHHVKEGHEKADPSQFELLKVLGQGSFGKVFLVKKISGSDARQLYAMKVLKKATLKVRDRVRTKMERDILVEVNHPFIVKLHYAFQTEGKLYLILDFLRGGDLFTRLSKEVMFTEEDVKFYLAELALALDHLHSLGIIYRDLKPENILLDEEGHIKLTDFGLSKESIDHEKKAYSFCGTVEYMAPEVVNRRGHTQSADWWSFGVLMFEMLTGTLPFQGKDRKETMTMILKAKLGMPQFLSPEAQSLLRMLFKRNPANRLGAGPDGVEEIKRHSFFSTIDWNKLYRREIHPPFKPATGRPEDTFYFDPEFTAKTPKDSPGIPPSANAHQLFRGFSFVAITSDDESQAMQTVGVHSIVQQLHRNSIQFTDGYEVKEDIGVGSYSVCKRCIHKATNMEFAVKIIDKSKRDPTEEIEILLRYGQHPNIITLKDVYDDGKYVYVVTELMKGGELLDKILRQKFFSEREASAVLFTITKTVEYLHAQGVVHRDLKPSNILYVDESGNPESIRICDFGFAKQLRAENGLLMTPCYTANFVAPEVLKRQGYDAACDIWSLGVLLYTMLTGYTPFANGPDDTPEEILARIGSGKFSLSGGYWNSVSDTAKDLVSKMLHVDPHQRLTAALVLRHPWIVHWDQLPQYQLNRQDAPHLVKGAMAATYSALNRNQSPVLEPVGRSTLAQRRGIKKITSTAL
# [10] = Oral bioavailability in Beagle dog at 5 mg/kg; assay type: ADME, organism-based, Canis lupus familiaris; details: in vivo
# [11] = Cmax in Hanover-Wistar rat at 5 mg/kg, po; assay type: ADME, organism-based; design: dose 5 mg/kg, route oral; details: in vivo
# [12] = biological target: Mitogen-activated protein kinase 8 (Homo sapiens) (UniProt P45983); assay: Inhibition of JNK1 at 10 uM
# Mitogen-activated protein kinase 8 (Homo sapiens), sequence (P45983 whole entry): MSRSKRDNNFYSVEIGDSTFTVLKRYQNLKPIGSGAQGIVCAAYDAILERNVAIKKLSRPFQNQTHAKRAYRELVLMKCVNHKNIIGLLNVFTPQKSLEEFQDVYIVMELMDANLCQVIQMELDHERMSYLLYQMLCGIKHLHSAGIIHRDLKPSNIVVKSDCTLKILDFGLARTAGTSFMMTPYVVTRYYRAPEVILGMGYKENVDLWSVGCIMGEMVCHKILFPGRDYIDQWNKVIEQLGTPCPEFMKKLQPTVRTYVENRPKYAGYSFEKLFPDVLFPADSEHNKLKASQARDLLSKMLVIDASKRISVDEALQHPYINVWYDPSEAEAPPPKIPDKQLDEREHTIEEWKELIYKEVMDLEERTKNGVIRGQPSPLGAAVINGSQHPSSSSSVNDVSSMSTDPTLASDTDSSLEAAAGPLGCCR
# [13] = biological target: Cyclin-G-associated kinase (Homo sapiens, UniProt O14976); assay: Inhibition of GAK
# Cyclin-G-associated kinase, sequence (O14976 whole entry): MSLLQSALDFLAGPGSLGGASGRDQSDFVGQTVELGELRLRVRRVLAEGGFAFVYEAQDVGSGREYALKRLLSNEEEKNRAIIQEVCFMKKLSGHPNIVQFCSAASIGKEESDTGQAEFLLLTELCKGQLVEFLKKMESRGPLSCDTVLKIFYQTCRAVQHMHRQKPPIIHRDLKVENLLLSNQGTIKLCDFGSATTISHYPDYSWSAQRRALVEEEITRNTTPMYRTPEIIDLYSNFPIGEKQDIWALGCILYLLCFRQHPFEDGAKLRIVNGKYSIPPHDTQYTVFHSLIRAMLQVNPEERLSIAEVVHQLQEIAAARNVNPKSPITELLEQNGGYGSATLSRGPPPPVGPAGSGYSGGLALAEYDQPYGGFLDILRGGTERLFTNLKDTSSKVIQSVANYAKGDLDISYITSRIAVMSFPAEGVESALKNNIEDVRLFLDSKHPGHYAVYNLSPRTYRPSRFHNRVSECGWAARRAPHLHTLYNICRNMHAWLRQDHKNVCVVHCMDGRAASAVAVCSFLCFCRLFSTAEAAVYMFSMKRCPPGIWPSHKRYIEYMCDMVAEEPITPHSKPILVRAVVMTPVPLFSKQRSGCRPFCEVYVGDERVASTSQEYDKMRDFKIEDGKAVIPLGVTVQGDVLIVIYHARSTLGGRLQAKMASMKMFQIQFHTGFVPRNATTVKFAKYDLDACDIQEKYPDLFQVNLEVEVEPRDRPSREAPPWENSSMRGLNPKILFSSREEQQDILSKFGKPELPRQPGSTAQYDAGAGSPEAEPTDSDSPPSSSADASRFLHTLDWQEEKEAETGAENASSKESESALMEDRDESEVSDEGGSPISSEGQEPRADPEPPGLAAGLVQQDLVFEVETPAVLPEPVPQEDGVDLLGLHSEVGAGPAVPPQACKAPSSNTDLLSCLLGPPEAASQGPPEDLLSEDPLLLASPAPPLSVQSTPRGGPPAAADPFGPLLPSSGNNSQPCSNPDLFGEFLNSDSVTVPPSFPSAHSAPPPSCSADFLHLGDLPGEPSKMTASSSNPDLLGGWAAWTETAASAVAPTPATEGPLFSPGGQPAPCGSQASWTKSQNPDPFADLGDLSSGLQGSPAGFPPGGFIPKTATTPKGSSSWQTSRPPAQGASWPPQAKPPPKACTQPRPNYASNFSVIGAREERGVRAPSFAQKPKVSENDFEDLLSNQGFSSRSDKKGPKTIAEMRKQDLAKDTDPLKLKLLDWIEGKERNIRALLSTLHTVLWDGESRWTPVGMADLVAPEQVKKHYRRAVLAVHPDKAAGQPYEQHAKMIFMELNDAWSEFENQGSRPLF
# [14] = AUC (0 to last) in cynomolgus monkey at 5 mg/kg, po after 72 hrs; assay type: ADME, organism-based, Macaca fascicularis; design: dose 5 mg/kg, route oral, time 0 - last; details: plasma
# [15] = Plasma protein binding in Hanover-Wistar rat by untrafiltration method; assay type: ADME, cell-free; details: read-out: PPB (converted)
# [16] = Clearance in Hanover-Wistar rat at 5 mg/kg, iv; assay type: ADME, organism-based; design: dose 5 mg/kg, route intravenous; details: in vivo
# [17] = biological target: Serine/threonine-protein kinase 36 (Homo sapiens) (UniProt Q9NRP7); details: 10 uM
# Description: Inhibition of STK36 at 10 uM
# Rattus norvegicus [18] = assay: Inhibition of LPS-induced TNFalpha production in rat serum at 3 mg/kg, po administered 30 mins before LPS challenge measured after […] by ELISA; assay type: functional
# [19] = biological target: Ribosomal protein S6 kinase alpha-4 (Homo sapiens, UniProt O75676); assay: Inhibition of RSK4 at 10 uM
# [20] = biological target: Casein kinase I isoform epsilon (Homo sapiens, UniProt P49674); details: 10 uM
# Casein kinase I isoform epsilon, sequence (P49674 whole entry, looked up, canonical isoform): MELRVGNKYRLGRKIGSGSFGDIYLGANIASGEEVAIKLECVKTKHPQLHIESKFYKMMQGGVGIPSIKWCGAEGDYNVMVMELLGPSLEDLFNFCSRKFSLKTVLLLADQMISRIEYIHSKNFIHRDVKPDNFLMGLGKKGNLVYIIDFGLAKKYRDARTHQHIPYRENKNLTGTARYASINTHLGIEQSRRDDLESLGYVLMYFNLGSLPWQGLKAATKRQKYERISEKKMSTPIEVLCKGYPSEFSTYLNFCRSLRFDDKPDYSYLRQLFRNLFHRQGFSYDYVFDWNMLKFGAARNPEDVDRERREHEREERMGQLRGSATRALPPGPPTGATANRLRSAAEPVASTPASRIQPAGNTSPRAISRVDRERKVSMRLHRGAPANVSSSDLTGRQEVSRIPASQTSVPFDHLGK
# Description: Inhibition of CSNK1epsilon at 10 uM
# Rattus norvegicus [21] = assay: Analgesic activity in po dosed rat inflammatory yeast hyperalgesia model assessed as increase in tolerance to pressure; assay type: functional, organism-based
# Cytochrome P450 3A4 = Cytochrome P450 3A4 (Homo sapiens, UniProt P08684); assay: Inhibition of human CYP3A4; assay type: ADME
# [22] = biological target: T1, Ribosomal protein S6 kinase alpha-3; assay: Inhibition of RSK2 at 10 uM
# [23] = biological target: Mitogen-activated protein kinase 10 (Homo sapiens, UniProt P53779); details: 10 uM
# Description: Inhibition of JNK3 at 10 uM
# [24] = Volume of distribution at steady state in Hanover-Wistar rat at 5 mg/kg, iv; assay type: ADME, organism-based; design: dose 5 mg/kg, route intravenous; details: in vivo, read-out: Vdss
# [25] = Half life in Beagle dog at 5 mg/kg, po; assay type: ADME, organism-based, Canis lupus familiaris; design: dose 5 mg/kg, route oral; details: in vivo
# [26] = Aqueous solubility of the compound in phosphate buffer at pH 6.5; assay type: physicochemical
# [27] = biological target: Serine/threonine-protein kinase 36 (Homo sapiens, UniProt Q9NRP7); assay: Inhibition of STK36
# [28] = Oral bioavailability in cynomolgus monkey at 5 mg/kg; assay type: ADME, organism-based, Macaca fascicularis; details: in vivo
# Cytochrome P450 1A2 = Cytochrome P450 1A2 (Homo sapiens, UniProt P05177); assay: Inhibition of human CYP1A2; assay type: ADME
# [29] = biological target: T2, Atypical kinase COQ8A, mitochondrial (Homo sapiens, UniProt Q8NI60); assay: Inhibition of ADCK3
# Target sequence in this assay (Q8NI60 whole entry): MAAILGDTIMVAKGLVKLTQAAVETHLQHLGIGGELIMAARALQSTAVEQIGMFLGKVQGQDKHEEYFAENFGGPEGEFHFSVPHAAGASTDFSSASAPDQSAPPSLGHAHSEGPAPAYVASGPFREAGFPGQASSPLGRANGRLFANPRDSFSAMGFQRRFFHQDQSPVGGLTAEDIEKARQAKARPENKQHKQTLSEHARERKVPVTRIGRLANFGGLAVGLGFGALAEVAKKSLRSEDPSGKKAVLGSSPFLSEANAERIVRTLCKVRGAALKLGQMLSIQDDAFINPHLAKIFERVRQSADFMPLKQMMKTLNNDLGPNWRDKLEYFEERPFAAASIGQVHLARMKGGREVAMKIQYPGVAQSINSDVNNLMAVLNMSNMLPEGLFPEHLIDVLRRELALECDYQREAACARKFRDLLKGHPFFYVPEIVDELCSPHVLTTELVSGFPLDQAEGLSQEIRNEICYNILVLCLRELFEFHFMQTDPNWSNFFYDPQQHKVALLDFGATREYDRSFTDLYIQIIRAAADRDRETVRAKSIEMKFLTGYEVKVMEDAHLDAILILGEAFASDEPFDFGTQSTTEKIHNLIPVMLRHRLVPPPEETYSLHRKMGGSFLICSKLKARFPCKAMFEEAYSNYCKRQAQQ
# [30] = AUC (0 to last) in Beagle dog at 5 mg/kg, po; assay type: ADME, organism-based, Canis lupus familiaris; design: dose 5 mg/kg, route oral, time 0 - last; details: plasma
# [31] = Volume of distribution at steady state in cynomolgus monkey at 5 mg/kg, iv; assay type: ADME, organism-based, Macaca fascicularis; design: dose 5 mg/kg, route intravenous; details: in vivo, read-out: Vdss
# [32] = Clearance in cynomolgus monkey at 5 mg/kg, iv; assay type: ADME, organism-based, Macaca fascicularis; design: dose 5 mg/kg, route intravenous; details: in vivo
# Rattus norvegicus [33] = assay: Inhibition of TNF-alpha-induced IL-6 production in po dosed rat plasma administered 30 mins before TNFalpha challenge measured after 2 hrs by ELISA; assay type: functional, organism-based
# [34] = Cmax in Beagle dog at 5 mg/kg, po; assay type: ADME, organism-based, Canis lupus familiaris; design: dose 5 mg/kg, route oral; details: in vivo
# [35] = biological target: T2, Atypical kinase COQ8A, mitochondrial; details: 10 uM
# Description: Inhibition of ADCK3 at 10 uM
# Rattus norvegicus [36] = assay: Inhibition of LPS-induced IL-6 production in po dosed rat serum administered 30 mins before LPS challenge measured after […] by ELISA; assay type: functional, organism-based
# [37] = biological target: T3, Epithelial discoidin domain-containing receptor 1 (Homo sapiens, UniProt Q08345); assay: Inhibition of DDR1 at 10 uM
# T3 sequence (Q08345 whole entry, the tested form may be a part): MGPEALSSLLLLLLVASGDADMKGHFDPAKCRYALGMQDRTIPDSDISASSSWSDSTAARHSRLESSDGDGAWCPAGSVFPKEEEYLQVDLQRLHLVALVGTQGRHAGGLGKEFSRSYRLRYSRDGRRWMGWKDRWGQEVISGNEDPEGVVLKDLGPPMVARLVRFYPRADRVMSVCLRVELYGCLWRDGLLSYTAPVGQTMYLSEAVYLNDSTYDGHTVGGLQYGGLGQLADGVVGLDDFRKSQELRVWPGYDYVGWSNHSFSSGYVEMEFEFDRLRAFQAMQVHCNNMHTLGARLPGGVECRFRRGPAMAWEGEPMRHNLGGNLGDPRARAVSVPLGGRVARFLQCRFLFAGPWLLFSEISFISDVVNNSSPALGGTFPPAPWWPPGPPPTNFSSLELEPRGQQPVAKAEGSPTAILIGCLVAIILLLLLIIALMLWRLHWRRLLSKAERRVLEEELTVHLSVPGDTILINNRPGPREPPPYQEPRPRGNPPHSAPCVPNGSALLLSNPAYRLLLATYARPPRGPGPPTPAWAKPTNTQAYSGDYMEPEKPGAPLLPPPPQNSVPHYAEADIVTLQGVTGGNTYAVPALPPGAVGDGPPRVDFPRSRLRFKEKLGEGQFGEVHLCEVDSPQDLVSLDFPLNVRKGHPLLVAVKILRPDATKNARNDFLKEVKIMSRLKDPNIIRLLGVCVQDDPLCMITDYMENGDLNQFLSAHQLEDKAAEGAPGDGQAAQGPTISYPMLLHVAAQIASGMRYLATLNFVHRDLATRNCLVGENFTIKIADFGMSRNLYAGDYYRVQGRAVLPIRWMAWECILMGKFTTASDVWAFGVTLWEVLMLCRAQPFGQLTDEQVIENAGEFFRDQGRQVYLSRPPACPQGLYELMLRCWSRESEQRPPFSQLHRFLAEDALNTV
# Cytochrome P450 2D6 = Cytochrome P450 2D6 (Homo sapiens, UniProt P10635); assay: Inhibition of human CYP2D6; assay type: ADME
# [38] = Tmax in Beagle dog at 5 mg/kg, po; assay type: ADME, organism-based, Canis lupus familiaris; design: dose 5 mg/kg, route oral; details: in vivo
# [39] = Half life in Hanover-Wistar rat at 5 mg/kg, po; assay type: ADME, organism-based; design: dose 5 mg/kg, route oral; details: in vivo
# [40] = Tmax in Hanover-Wistar rat at 5 mg/kg, po; assay type: ADME, organism-based; design: dose 5 mg/kg, route oral; details: in vivo
# [41] = biological target: Mitogen-activated protein kinase 9 (Homo sapiens) (UniProt P45984); assay: Inhibition of JNK2 at 10 uM
# [42] = Permeability of the compound from apical to basolateral side of human Caco2 cells at 10 uM after 21 days; assay type: ADME, cell-based; details: Caco-2, read-out: permeability
# [43] = biological target: T3, Epithelial discoidin domain-containing receptor 1; assay: Inhibition of DDR1
# [44] = Tmax in cynomolgus monkey at 5 mg/kg, po; assay type: ADME, organism-based, Macaca fascicularis; design: dose 5 mg/kg, route oral; details: in vivo
# [45] = AUC (0 to last) in Hanover-Wistar rat at 5 mg/kg, po after 24 hrs; assay type: ADME, organism-based; design: dose 5 mg/kg, route oral, time 0 - last; details: plasma
# [46] = biological target: Serine/threonine-protein kinase NLK (Homo sapiens) (UniProt Q9UBE8); assay: Inhibition of NLK at 10 uM
# Cytochrome P450 2C19 = Cytochrome P450 2C19 (Homo sapiens, UniProt P33261); assay: Inhibition of human CYP2C19; assay type: ADME
# [47] = biological target: Cyclin-G-associated kinase (Homo sapiens) (UniProt O14976); assay: Inhibition of GAK at 10 uM
# Cyclin-G-associated kinase (Homo sapiens), sequence (O14976 whole entry): as the sequence (O14976 whole entry) above
structure (smiles),measurement,setting,value
Cn1c(=O)c(Oc2ccc(F)cc2F)cc2cnc(NC(CCO)CCO)nc21 [PAMAPIMOD],Cmax,[1],1.86 µg/mL
same,Vd,[2],12.7 L/kg
same,half-life,[3],13.8 h
same,Papp B→A at 10 µM,[4],226 nm/s
same,inhibition,[5],> 85%
same,fraction unbound,[6],0.146
same,clearance,[7],0.75 L/h/kg
same,bioavailability,[8],80.1%
same,IC50,Cytochrome P450 2C9,> 29 µM
same,Kd,[9],0.3 µM
same,bioavailability,[10],78.2%
same,Cmax,[11],1.34 µg/mL
same,inhibition,[12],> 85%
same,Kd,[13],> 1 µM
same,AUC(0-t) at 72 h,[14],9.41 µg·h/mL
same,fraction unbound,[15],0.171
same,clearance,[16],1.26 L/h/kg
same,inhibition,[17],> 85%
same,inhibition in vivo at 3 mg/kg,Rattus norvegicus [18],77%
same,inhibition,[19],> 85%
same,inhibition,[20],> 85%
same,Activity,Rattus norvegicus [21],Dose-dependent effect
same,EC50,Rattus norvegicus [21],4.3 µM
same,ED50,Rattus norvegicus [21]; po,20.4 mg/kg
same,IC50,Cytochrome P450 3A4,> 29 µM
same,inhibition,[22],> 85%
same,inhibition,[23],> 85%
same,Vd,[24],3.56 L/kg
same,half-life,[25],9.18 h
same,solubility,[26],0.17 mg/mL
same,Kd,[27],> 1 µM
same,bioavailability,[28],> 100%
same,IC50,Cytochrome P450 1A2,> 29 µM
same,Kd,[29],> 1 µM
same,AUC(0-t),[30],5.22 µg·h/mL
same,Vd,[31],20.6 L/kg
same,clearance,[32],0.65 L/h/kg
same,EC50,Rattus norvegicus [33],0.27 µM
same,ED50,Rattus norvegicus [33]; po,1.1 mg/kg
same,Cmax,[34],1.38 µg/mL
same,inhibition,[35],> 85%
same,EC50,Rattus norvegicus [36],0.05 µM
same,ED50,Rattus norvegicus [36]; po,0.1 mg/kg
same,inhibition,[37],> 85%
same,IC50,Cytochrome P450 2D6,> 29 µM
same,Tmax,[38],0.67 h
same,half-life,[39],4.04 h
same,Tmax,[40],0.5 h
same,inhibition,[41],> 85%
same,Papp A→B at 10 µM,[42],27.4 nm/s
same,Kd,[43],> 1 µM
same,Tmax,[44],1.5 h
same,AUC(0-t) at 24 h,[45],3.13 µg·h/mL
same,inhibition,[46],> 85%
same,IC50,Cytochrome P450 2C19,> 29 µM
same,inhibition,[47],> 85%

# — ChEMBL document CHEMBL1764984 (J Med Chem, 2011)
